Laboratory results reported in patent publication US20210333284A1, “METHODS AND MATERIALS FOR LARGE-SCALE ASSESSMENT OF LIGAND BINDING SELECTIVITY OF G-QUADRUPLEX RECOGNITION USING CUSTOM G4 MICROARRAYS” (Purdue Research Foundation, priority 2020, published 2021).

B1: DHX36: GST-tagged human DHX36/G4R1/MLEL1 helicase (protein, listed as Homo sapiens)
chain: MSYDYHQNWGRDGGPRSSGGGYGGGPAGGHGGNRGSGGGGGGGGGGRGGRGRHPGHLKGREIGMWYAKKQGQKNKEAERQERAVVHMDERREEQIVQLLNSVQAKNDKESEAQISWFAPEDHGYGTEVSTKNTPCSENKLDIQEKKLINQEKKMFRIRNRSYIDRDSEYLLQENEPDGTLDQKLLEDLQKKKNDLRYIEMQHFREKLPSYGMQKELVNLIDNHQVTVISGETGCGKTTQVTQFILDNYIERGKGSACRIVCTQPRRISAISVAERVAAERAESCGSGNSTGYQIRLQSRLPRKQGSILYCTTGIILQWLQSDPYLSSVSHIVLDEIHERNLQSDVLMTVVKDLLNFRSDLKVILMSATLNAEKFSEYFGNCPMIHIPGFTFPVVEYLLEDVIEKIRYVPEQKEHRSQFKRGFMQGHVNRQEKEEKEAIYKERWPDYVRELRRRYSASTVDVIEMMEDDKVDLNLIVALIRYIVLEEEDGAILVFLPGWDNISTLHDLLMSQVMFKSDKFLIIPLHSLMPTVNQTQVFKRTPPGVRKIVIATNIAETSITIDDVVYVIDGGKIKETHFDTQNNISTMSAEWVSKANAKQRKGRAGRVQPGHCYHLYNGLRASLLDDYQLPEILRTPLEELCLQIKILRLGGIAYFLSRLMDPPSNEAVLLSIRHLMELNALDKQEELTPLGVHLARLPVEPHIGKMILFGALFCCLDPVLTIAASLSFKDPFVIPLGKEKIADARRKELAKDTRSDHLTVVNAFEGWEEARRRGFRYEKDYCWEYFLSSNTLQMLHNMKGQFAEHLLGAGFVSSRNPKDPESNINSDNEKIIKAVICAGLYPKVAKIRLNLGKKRKMVKVYTKTDGLVAVHPKSVNVEQTDFHYNWLIYHLKMRTSSIYLYDCTEVSPYCLLFFGGDISIQKDNDQETIAVDEWIVFQSPARIAHLVKELRKELDILLQEKIESPHPVDWNDTKSRDCAVLSAIIDLIKTQEKATPRNFPPRFQDGYYS
modifications: GST tag
notes: GST-tagged human DHX36/G4R1/MLEL1 helicase
B2: FANCJ: GST-tagged human BRCA1-binding helicase-like protein / Fanconi anemia group J protein (protein, listed as Homo sapiens)
chain: MSSMWSEYTIGGVKIYFPYKAYPSQLAMMNSILRGLNSKQHCLLESPTGSGKSLALLCSALAWQQSLSGKPADEGVSEKAEVQLSCCCACHSKDFTNNDMNQGTSRHFNYPSTPPSERNGTSSTCQDSPEKTTLAAKLSAKKQASIYRDENDDFQVEKKRIRPLETTQQIRKRHCFGTEVHNLDAKVDSGKTVKLNSPLEKINSFSPQKPPGHCSRCCCSTKQGNSQESSNTIKKDHTGKSKIPKIYFGTRTHKQIAQITRELRRTAYSGVPMTILSSRDHTCVHPEVVGNFNRNEKCMELLDGKNGKSCYFYHGVHKISDQHTLQTFQGMCKAWDIEELVSLGKKLKACPYYTARELIQDADIIFCPYNYLLDAQIRESMDLNLKEQVVILDEAHNIEDCARESASYSVTEVQLRFARDELDSMVNNNIRKKDHEPLRAVCCSLINWLEANAEYLVERDYESACKIWSGNEMLLTLHKMGITTATFPILQGHFSAVLQKEEKISPIYGKEEAREVPVISASTQIMLKGLFMVLDYLFRQNSRFADDYKIAIQQTYSWTNQIDISDKNGLLVLPKNKKRSRQKTAVHVLNFWCLNPAVAFSDINGKVQTIVLTSGTLSPMKSFSSELGVTFTIQLEANHIIKNSQVWVGTIGSGPKGRNLCATFQNTETFEFQDEVGALLLSVCQTVSQGILCFLPSYKLLEKLKERWLSTGLWHNLELVKTVIVEPQGGEKTNFDELLQVYYDAIKYKGEKDGALLVAVCRGKVSEGLDFSDDNARAVITIGIPFPNVKDLQVELKRQYNDHHSKLRGLLPGRQWYEIQAYRALNQALGRCIRHRNDWGALILVDDRFRNNPSRYISGLSKWVRQQIQHHSTFESALESLAEFSKKHQKVLNVSIKDRTNIQDNESTLEVTSLKYSTPPYLLEAASHLSPENFVEDEAKICVQELQCPKIITKNSPLPSSIISRKEKNDPVFLEEAGKAEKIVISRSTSPTFNKQTKRVSWSSFNSLGQYFTGKIPKATPELGSSENSASSPPRFKTEKMESKTVLPFTDKCESSNLTVNTSFGSCPQSETIISSLKIDATLTRKNHSEHPLCSEEALDPDIELSLVSEEDKQSTSNRDFETEAEDESIYFTPELYDPEDTDEEKNDLAETDRGNRLANNSDCILAKDLFEIRTIKEVDSAREVKAEDCIDTKLNGILHIEESKIDDIDGNVKTTWINELELGKTHEIEIKNFKPSPSKNKGMFPGFK
modifications: GST tag

Experiments:
[1] = test system: parallel-stranded MYC_14/23T, MYC1234 and VEGF G4s; assay: 1D 1H NMR titration with parallel G4s; assay type: binding, human
Source text: The binding selectivity of BMVC to G4 structures and flanking sequences was confirmed by NMR titration experiments of BMVC to different G4 sequences, including parallel-stranded MYC_14/23T G4 and its 5′- and 3′-flanking variants, VEGF and MYC1234 G4s, basket-type human telomeric G4 (wtTel22 in Na+), and hybrid type human telomeric G4 (Tel26 in K+) (FIG. 12). BMVC binds best to the MYC_14/23T G4, as indicated by well-resolved imino proton peaks for BMVC complexes (FIG. 12, panel a). […] In contrast, the 3′-end binding of BMVC is sensitive to the mutations at the 3′-flanking sequence, with a clear preference for the 3′-flanking T. In addition, BMVC prefers at least two flanking bases for a specific binding.
G4 DNA oligonucleotides were synthesized using β-cyanoethylphosphoramidite solid-phase chemistry (Applied Biosystem Expedite 8909), as described previously. NMR experiments were performed on a Bruker AV-III-500-HD equipped with a BBFO Z-gradient cryoprobe. DNA samples were heated to 95° C. for 5 min, then cooled slowly for G4 formation. For the 1D 1H NMR experiments, samples contained 100-250 μM DNA in an appropriate buffer solution with 10% D2O for the lock. The titrations were performed by adding increasing amounts of the compounds to the DNA samples in solution.

[2] = biological target: various G4 structures (MYC, VEGF, human telomeric G4s); assay: Apparent dissociation constant by BMVC fluorescence; assay type: binding; conditions: 20 nM BMVC, 25° C.
Description: FIG. 11 Apparent dissociation constant (Kd, app) of BMVC binding to various G4 structures determined by BMVC fluorescence. Conditions: 20 nM BMVC, 25° C., pH 7, 100 mM K+ (100 mM Na+ for wtTel22).

[3] = test system: MYC expression; conditions: human breast cancer cell line; cited from earlier work
[4] = test system: G4 sequences and non-G4 ssDNA controls on Design 3 microarray; assay: Custom G4 DNA microarray, direct binding by fluorescence intensity; set-up: species or system human
Source text: Three Agilent DNA microarrays (TABLE 1) were designed, each with four identical sectors that contain ca.177,440 ssDNA 60-mers to examine G4-binding specificity. Arrays were designed with 9-73 replicates of each unique sequence to ensure statistical significance (TABLE 1). Each microarray contains different sets of G4 variants designed to examine several sequence parameters that affect G4 formation and binding specificity such as loop length (Design 1), loop sequence (Design 2), tail sequence (Design 2), and single nucleotide variants of six known G4s (Design 3). All microarrays include a set of 19 sequences from human telomeres and oncogene promoters known to form G4s with various topologies as positive controls (TABLE 2). Designs 2 and 3 have a set of 295 additional G4-forming sequences from the literature.^30 For the loop length variants, the length of the tails and loops of four different MYC G4 sequences (MYC Pu27, MYC Pu18ntd, MYC Pu22, and MYC Pu22 NMR mutant) was increased up to five times their length. Loop and tail sequences were varied using A, T, G, and C polynucleotide stretches and a subset of combinations. For the loop sequence variants, 4,096 sequences of the form NGGGNGGGNNGGGNGGGN (SEQ ID NO: 2) and 64 variants of the form GGGNGGGNGGGNGGG (SEQ ID NO: 1) were generated. For the tail variants, 256 versions of the major MYC G4 with all possible dinucleotide tails ([…] (SEQ ID NO: 3)) were generated. […]
The binding specificities of several molecules were evaluated. […] Binding of each molecule is measured by detection of fluorescence intensity at each of the microarray features. […] Cellular proteins were expressed as chimeric proteins containing GST, and binding for these proteins was detected using an anti-GST antibody conjugated with Cy5 (Materials and Methods). […] For Cy5-PDS, robust binding is observed at 1 μM, with fluorescence intensities ranging over 100-fold between strongest and weakest bound DNA features. The fluorescence-binding intensities of Cy5-PDS are proportional to the concentration of pyridostatin used). […]

Molecule | binding to MYC1234 and VEGF G4 by NMR titration ([1]; other parallel G4s) | binding to MYC_14/23T G4 by NMR titration ([1]; well-resolved imino proton peaks, 95 mM K+, pH 7, 25° C.) | apparent dissociation constant (Kd, app), ranking for MYC_14/23T G4 ([2]; pH 7, 100 mM K+) | binding to parallel G4s (MYC, VEGF) vs human telomeric G4s by fluorescence ([2]; pH 7, 100 mM K+ (100 mM Na+ for wtTel22)) | effect on MYC expression [3] | binding specificity, G4 vs non-G4 ssDNA sequences [4]
C[n+]1ccc(/C=C/c2ccc3[nH]c4ccc(/C=C/c5cc[n+](C)cc5)cc4c3c2)cc1.[I-].[I-] [BMVC, 3,6-Bis(1-methyl-4-vinylpyridinium) carbazole diiodide] | bind well | binds best | highest affinity | stronger than the human telomeric G4s | represses MYC expression | –
B1 | – | – | – | – | – | bind only G4 sequences
B2 | – | – | – | – | – | also bind other ssDNAs in addition to folded G4s
